Assay results reported in patent publication US20250213701A1, “MEDICAMENT FOR TREATING HUMAN TUMOR BASED ON ERF3A-TARGETING PROTEOLYSIS MECHANISM” (SUZHOU DEGEN BIO-MEDICAL CO., LTD., priority 2022, published 2025).

Columns and labels:
AR = assay: Western blot assay in 22Rv1 cells: AR; type: cell-based, human; conditions: different concentrations at 24 h, and 3 nM at different time points (FIGS. 7 and 8)
Excerpt: (§1) Example 84: Western Blot Assay of Compound C59 in 22Rv1, PC-3, and HepG2 Cells
(§2) (1) Materials: 22Rv1, PC-3, and HepG2 cell, anti-SRD5A1 antibody (ab167606), anti-SRD5A2 antibody (ab124877), anti-SRD5A3 antibody (PA5-107029), anti-androgen receptor (AR) antibody (CST, No. 5153), anti-GSPT1 antibody (Abcam, ab234433), anti-GADPH antibody (CST, No. 5174), anti-c-Myc antibody (CST, No. 8583), anti-α-tublin antibody (CST, No. 2125), anti-rabbit IgG, HRP-linked antibody (CST, No. 7074), electrophoresis device and membrane transfer device (LIUYI, BEIJING; DYCZ-24DN)
(§3) Cell seeding: 22Rv1 (Cell Bank of the Chinese Academy of Sciences, TCHu100), PC-3 (Cell Bank of the Chinese Academy of Sciences, SCSP-532) and HepG2 cells (Cell Bank of the Chinese Academy of Sciences, TCHu72) were subcultured and trypsinized to prepare 6×10^5 cells/mL suspensions, seeded on 6-well plates (3 mL/well), and cultured overnight in a cell incubator at 5% CO2 and 37° C. […]
(§4) Protein quantification: The protein was quantified using a BCA protein quantification kit. […]
(§5) Western immunoblot assay (or Western blot, WB): SDS-PAGE gel at a proper concentration was prepared according to the molecular weight of the target protein: for example, the concentration of the separation gel was 8% and the concentration of the stacking gel was 5%. The loading volume was adjusted according to the protein quantification results. […]

GSPT1 = biological target: T1, GSPT1 (Homo sapiens, UniProt P15170+Q96SW2); assay: Western blot assay in 22Rv1 cells: GSPT1; type: cell-based; conditions: different concentrations at 24 h, and 3 nM at different time points (FIGS. 7 and 8)
T1 construct: The downregulation of SRD5A3 and GSPT1 (eRF3a) proteins in PC-3 and HepG2 cells by C59; endogenous in cells; host or cells: 22Rv1, PC-3, HepG2
Excerpt: as §1, §2, §3, §4, §5

AGS cells = assay: Anti-proliferative toxicity of C63 in tumor cell lines (CCK8): AGS; type: cell-based; conditions: Homo sapiens, 72 h, 3 days, read-out: Inhibition rate
Procedure: (§6) Example 83: Detection of Anti-Proliferative Toxicity of C63 in Some Tumor Cell Lines
AGS cells (purchased from the Cell Bank of the Chinese Academy of Sciences, Cat. No. TCHu232) were subcultured in a culture medium (F12K medium+[…] dual-antibiotic solution+10% fetal bovine serum) in an incubator at […] and 37° C.
AGS cells were seeded at 2000 cells/well (90 μL) on a 96-well plate and cultured for 24 h.
(§7) 10 mM compound stock solutions were prepared in DMSO.
(§8) The compound stock solution was diluted with DMSO to give DMSO solutions 1-9 at concentrations of 0 μM, 2500 μM, 500 μM, 100 μM, 20 μM, 4 μM, 0.8 μM, 0.16 μM, and 0.032 μM.
(§9) 2 μL of each of solutions 1-9 was added to 98 μL of the medium to give mixed solutions 11-19 of the compound and the medium.
(§10) 10 μL of each of solutions 11-19 was added to the above cell seed solution to give a total volume of 100 μL (90 μL+10 μL).
(§11) The concentrations of the compound in the wells were 0 μM, 5.0 μM, 1.0 μM, 0.2 μM, 0.04 μM, 0.008 μM, 0.0016 μM, 0.00032 μM, and 0.000064 μM. All concentrations were in triplicate.
(§12) After the above-treated cells were cultured for 3 days, 10 μL of the CCK8 solution (DOJINDO, Cat. No. PF725) was added to each well. The plate was incubated in an incubator at 37° C. for 1-4 h and then detected on a microplate reader for the reading at 450 nm.

NCI-N87 cells = assay: Anti-proliferative toxicity of C63 in tumor cell lines (CCK8): NCI-N87; type: cell-based; conditions: Homo sapiens, 72 h, 3 days, read-out: Inhibition rate
Procedure: as §6
NCI-N87 cells (purchased from the Cell Bank of the Chinese Academy of Sciences, Cat. No. TCHu130) were subcultured in a culture medium (RPMI-1640 medium+1% penicillin-streptomycin dual-antibiotic solution+10% fetal bovine serum) in an incubator at 5% carbon dioxide and 37° C.
NCI-N87 cells were seeded at 8000 cells/well (90 μL) on a 96-well plate and cultured for 24 h.
as §7, §8, §9, §10, §11, §12

HL-60 cells = assay: Anti-proliferative toxicity of C63 in tumor cell lines (CCK8): HL-60; type: cell-based; conditions: Homo sapiens, 72 h, 3 days, read-out: Inhibition rate
Procedure: as §6
HL-60 cells (purchased from the Cell Bank of the Chinese Academy of Sciences, Cat. No. TCHu23) were subcultured in a culture medium (IMDM medium+1% penicillin-streptomycin dual-antibiotic solution+20% fetal bovine serum) in an incubator at 5% carbon dioxide and 37° C.
HL-60 cells were seeded at 20000 cells/well (90 μL) on a 96-well plate and cultured for 24 h.
as §7, §8, §9, §10, §11, §12

T1 sequence (P15170 1-637 isoform P15170-3): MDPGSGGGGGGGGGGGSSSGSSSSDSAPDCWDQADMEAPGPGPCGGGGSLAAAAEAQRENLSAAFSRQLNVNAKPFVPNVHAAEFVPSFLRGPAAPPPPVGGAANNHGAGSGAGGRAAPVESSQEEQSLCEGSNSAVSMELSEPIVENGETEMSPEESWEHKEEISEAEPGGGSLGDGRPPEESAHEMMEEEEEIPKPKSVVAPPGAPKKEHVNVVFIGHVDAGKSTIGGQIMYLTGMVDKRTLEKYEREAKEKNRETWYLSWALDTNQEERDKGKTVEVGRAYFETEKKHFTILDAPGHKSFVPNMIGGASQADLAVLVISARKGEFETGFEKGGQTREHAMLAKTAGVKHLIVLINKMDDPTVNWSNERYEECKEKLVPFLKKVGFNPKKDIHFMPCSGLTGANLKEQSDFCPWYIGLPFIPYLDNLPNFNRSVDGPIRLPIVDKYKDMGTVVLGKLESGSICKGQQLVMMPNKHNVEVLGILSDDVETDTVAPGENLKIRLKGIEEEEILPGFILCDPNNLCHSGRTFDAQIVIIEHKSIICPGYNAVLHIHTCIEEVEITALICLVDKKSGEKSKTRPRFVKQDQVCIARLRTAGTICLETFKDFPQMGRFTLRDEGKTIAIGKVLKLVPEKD
T1 sequence (Q96SW2 whole entry): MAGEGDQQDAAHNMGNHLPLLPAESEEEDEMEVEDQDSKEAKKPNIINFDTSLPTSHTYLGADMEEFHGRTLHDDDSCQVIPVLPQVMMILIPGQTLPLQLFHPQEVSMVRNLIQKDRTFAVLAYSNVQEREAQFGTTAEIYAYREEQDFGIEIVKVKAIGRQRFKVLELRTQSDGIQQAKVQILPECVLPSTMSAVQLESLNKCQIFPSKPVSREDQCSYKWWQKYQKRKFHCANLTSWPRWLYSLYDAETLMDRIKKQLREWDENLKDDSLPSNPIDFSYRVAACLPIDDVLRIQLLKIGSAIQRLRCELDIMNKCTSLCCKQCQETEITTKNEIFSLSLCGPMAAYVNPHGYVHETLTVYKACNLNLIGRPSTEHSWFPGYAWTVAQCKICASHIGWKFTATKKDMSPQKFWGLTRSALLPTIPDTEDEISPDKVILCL
T1 sequence (Q16531 whole entry partner): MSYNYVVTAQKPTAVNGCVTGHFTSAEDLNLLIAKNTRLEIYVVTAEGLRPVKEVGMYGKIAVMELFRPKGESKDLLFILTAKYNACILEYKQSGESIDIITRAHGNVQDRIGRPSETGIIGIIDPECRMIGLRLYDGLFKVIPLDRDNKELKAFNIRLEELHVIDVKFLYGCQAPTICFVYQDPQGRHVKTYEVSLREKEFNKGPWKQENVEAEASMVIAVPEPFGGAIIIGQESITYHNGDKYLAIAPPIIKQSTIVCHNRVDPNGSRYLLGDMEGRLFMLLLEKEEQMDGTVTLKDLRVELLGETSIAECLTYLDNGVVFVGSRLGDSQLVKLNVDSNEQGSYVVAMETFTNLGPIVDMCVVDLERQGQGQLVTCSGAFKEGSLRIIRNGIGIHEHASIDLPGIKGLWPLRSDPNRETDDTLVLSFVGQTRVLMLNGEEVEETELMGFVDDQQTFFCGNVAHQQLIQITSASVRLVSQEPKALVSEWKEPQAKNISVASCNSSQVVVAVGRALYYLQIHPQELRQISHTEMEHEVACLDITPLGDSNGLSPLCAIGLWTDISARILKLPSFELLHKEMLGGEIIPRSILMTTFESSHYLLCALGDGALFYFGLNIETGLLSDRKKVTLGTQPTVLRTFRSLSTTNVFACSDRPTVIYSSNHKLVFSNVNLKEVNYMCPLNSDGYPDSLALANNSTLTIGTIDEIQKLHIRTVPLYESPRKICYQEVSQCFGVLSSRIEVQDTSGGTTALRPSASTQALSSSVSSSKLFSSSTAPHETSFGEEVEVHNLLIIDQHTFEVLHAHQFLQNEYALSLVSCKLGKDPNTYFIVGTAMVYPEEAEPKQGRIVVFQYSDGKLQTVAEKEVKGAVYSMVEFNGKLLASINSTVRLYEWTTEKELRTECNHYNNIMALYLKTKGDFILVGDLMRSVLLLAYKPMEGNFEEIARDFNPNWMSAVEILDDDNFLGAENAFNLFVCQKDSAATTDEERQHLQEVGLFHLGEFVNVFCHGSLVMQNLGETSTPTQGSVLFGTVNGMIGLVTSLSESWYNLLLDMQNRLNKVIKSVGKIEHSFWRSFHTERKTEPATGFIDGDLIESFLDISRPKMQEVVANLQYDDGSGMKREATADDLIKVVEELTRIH

SMILES: C[C@]12C=CC(=O)N[C@@H]1CC[C@@H]1[C@@H]2CC[C@]2(C)[C@@H](C(=O)Nc3cccc(N[C@@H]4CCC[C@@H](Nc5cccc6c5C(=O)N(C5CCC(=O)NC5=O)C6=O)C4)c3)CC[C@@H]12 (stereo partly drawn) [C59, N-(3-(N—(N-(4-(2-(3-(2,6-dioxopiperidine))-isoindole-1,3-dione))-1R,3R-cyclohexanediamine))phenyl)-3-oxo-4-aza-5α-androst-1-ene-17β-carboxamide]
- downregulation of AR protein (Western blot) (AR): downregulation
- downregulation of GSPT1 protein (Western blot) (GSPT1): downregulation

SMILES: C[C@]12C=CC(=O)N[C@@H]1CC[C@@H]1[C@@H]2CC[C@]2(C)[C@@H](C(=O)Nc3cccc(N[C@@H]4CCC[C@@H](Nc5cccc6c5C(=O)N([C@H]5CCC(=O)NC5=O)C6=O)C4)c3)CC[C@@H]12 [C63, N-(3-(N—(N-(4-(2-(3S-(2,6-dioxopiperidine))-isoindole-1,3-dione))-1R,3R-cyclohexanediamine))phenyl)-3-oxo-4-aza-5α-androst-1-ene-17β-carboxamide]
- inhibition at 64 pM (AGS cells; 0.000064 μM): 17.5%
- inhibition at 0.00032 µM (AGS cells; 0.000320 μM): 11.1%
- inhibition at 0.0016 µM (AGS cells; 0.001600 μM): 20.4%
- inhibition at 0.008 µM (AGS cells; 0.008000 μM): 44.2%
- inhibition at 0.04 µM (AGS cells; 0.040000 μM): 59.7%
- inhibition at 0.2 µM (AGS cells; 0.200000 μM): 74%
- inhibition at 1 µM (AGS cells; 1.000000 μM): 79.8%
- inhibition at 5 µM (AGS cells; 5.000000 μM): 80.8%
- inhibition at 64 pM (NCI-N87 cells; 0.000064 μM): 7.79%
- inhibition at 0.00032 µM (NCI-N87 cells; 0.000320 μM): 32.7%
- inhibition at 0.0016 µM (NCI-N87 cells; 0.001600 μM): 61%
- inhibition at 0.008 µM (NCI-N87 cells; 0.008000 μM): 66.7%
- inhibition at 0.04 µM (NCI-N87 cells; 0.040000 μM): 64.1%
- inhibition at 0.2 µM (NCI-N87 cells; 0.200000 μM): 62.5%
- inhibition at 1 µM (NCI-N87 cells; 1.000000 μM): 64%
- inhibition at 5 µM (NCI-N87 cells; 5.000000 μM): 65.2%
- inhibition at 64 pM (HL-60 cells; 0.000064 μM): 73.5%
- inhibition at 0.00032 µM (HL-60 cells; 0.000320 μM): 80.2%
- inhibition at 0.0016 µM (HL-60 cells; 0.001600 μM): 89.5%
- inhibition at 0.008 µM (HL-60 cells; 0.008000 μM): 90.7%
- inhibition at 0.04 µM (HL-60 cells; 0.040000 μM): 92.4%
- inhibition at 0.2 µM (HL-60 cells; 0.200000 μM): 94.3%
- inhibition at 1 µM (HL-60 cells; 1.000000 μM): 91.6%
- inhibition at 5 µM (HL-60 cells; 5.000000 μM): 87.5%
